Results: patent US20240343732A1, “COMPOUNDS FOR DEGRADATION OF CYCLIN-DEPENDENT KINASE 7(CDK7)” (QURIENT CO., LTD., priority 2021, published 2024)
pIC50: −log10 of the molar value.

What was measured:
CDK1 = molecular target: T1, CDK1 (Homo sapiens, UniProt P06493); experiment: Binding assay (FRET, LanthaScreen Eu, Tracer236) for CDK1; conditions: for pIC50: read-out: CDK1 IC50 (enzyme binding assay)
T1 construct: His; purchased Invitrogen PR4768C
Method: (§1) Inhibition activity of compound to CDK7 kinase was tested in a binding assay which was applied to the FRET (fluorescence resonance energy transfer) principle from the europium (Eu) donor fluorophore to the acceptor fluorophore on the kinase tracer. Test compounds were made to 1.125 mM of compound solution, and then this compound solution 4-fold serial diluted in 8 steps using an automated liquid handler (JANUS™, PerkinElmer). 80 nL/well of each diluted compound solution was added into the 384-well plate (Greiner, Cat #784075) first and 7.5 ul/well of working solution [5 nM of CDK7/CycH/MNAT1 (Invitrogen, Cat #PR6749B), 4 nM of Biotin anti-His Tag Antibody (Invitrogen, Cat #PV6090), and LanthaScreen® Eu-Streptavidin (Invitrogen, Cat #PV6025)] was added. After mixing the solution well, the same volume with the working solution of Tracer236 (Invitrogen, Cat #PV5592) was added into each well in the plate. The plate was incubated for 60 minutes at room temperature and then all the fluorescence were measured using Envision leader (Perkin Elmer, USA) [Laser as excitation light; […] as the first and the second emission filter]. Data was analysed using XL Fit software.
(§2) All of the synthesized compounds were screened in the above-mentioned assay procedure. To identify the inhibition activity of compounds for other CDKs including CDK1 (Invitrogen, Cat #PR4768C), CDK2 (Invitrogen, Cat #PR4448B) and CDK5 (Invitrogen, Cat #PR8543B) were tested using the same protocol under reasonable concentration of Tracer236 and kinases for each assay. The formula for the assay buffer summarized in below table.

CDK2 = molecular target: T2, CDK2 (Homo sapiens, UniProt P24941); experiment: Binding assay (FRET, LanthaScreen Eu, Tracer236) for CDK2; conditions: for pIC50: read-out: CDK2 IC50 (enzyme binding assay)
T2 construct: His; purchased Invitrogen PR4448B
Method: as §1, §2

CDK5 = molecular target: T3, CDK5 (Homo sapiens, UniProt Q00535); experiment: Binding assay (FRET, LanthaScreen Eu, Tracer236) for CDK5; conditions: for pIC50: read-out: CDK5 IC50 (enzyme binding assay)
T3 construct: His; purchased Invitrogen PR8543B
T3 sequence (Q00535 whole entry): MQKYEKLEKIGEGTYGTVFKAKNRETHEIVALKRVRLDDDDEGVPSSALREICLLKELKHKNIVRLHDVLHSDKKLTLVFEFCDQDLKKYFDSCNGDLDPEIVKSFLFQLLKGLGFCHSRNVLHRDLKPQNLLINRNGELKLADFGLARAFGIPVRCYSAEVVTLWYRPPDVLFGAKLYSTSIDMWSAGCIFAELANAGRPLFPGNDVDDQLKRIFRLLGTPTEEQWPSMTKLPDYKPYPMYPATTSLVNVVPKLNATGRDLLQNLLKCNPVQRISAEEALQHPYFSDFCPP
T3 sequence (Q15078 99-307 partner limits assumed): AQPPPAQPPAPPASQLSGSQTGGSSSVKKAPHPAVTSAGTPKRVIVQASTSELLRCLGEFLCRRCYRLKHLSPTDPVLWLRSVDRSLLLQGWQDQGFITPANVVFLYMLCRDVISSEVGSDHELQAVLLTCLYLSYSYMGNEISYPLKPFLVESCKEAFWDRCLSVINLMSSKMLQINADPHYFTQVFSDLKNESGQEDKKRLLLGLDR
Method: as §1, §2

CDK7/CycH/MNAT1 = molecular target: T4, CDK7/CycH/MNAT1 (Homo sapiens, UniProt P50613); experiment: Binding assay (FRET, LanthaScreen Eu, Tracer236) for CDK7; conditions: read-out: CDK7 IC50 (enzyme binding assay)
T4 construct: His; purchased Invitrogen PR6749B
T4 sequence (P50613 whole entry): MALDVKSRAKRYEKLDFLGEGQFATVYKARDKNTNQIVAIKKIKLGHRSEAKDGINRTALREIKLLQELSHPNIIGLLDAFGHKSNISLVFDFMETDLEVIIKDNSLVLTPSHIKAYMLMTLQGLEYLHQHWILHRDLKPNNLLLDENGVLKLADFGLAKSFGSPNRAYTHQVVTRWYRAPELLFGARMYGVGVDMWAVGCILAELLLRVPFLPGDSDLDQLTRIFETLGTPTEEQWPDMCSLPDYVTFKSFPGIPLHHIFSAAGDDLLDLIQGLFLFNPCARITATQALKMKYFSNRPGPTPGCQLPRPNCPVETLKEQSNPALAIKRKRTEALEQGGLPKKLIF
T4 sequence (P51946 whole entry partner): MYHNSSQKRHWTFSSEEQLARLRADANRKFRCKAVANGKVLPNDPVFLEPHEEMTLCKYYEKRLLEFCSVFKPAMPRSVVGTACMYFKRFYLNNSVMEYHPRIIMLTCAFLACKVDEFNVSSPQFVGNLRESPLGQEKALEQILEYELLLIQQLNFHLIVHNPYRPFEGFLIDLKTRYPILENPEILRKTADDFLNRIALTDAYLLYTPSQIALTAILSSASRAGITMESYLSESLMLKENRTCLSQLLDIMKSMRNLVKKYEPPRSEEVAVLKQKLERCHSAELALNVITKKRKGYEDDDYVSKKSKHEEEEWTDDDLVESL
T4 sequence (P51948 whole entry partner): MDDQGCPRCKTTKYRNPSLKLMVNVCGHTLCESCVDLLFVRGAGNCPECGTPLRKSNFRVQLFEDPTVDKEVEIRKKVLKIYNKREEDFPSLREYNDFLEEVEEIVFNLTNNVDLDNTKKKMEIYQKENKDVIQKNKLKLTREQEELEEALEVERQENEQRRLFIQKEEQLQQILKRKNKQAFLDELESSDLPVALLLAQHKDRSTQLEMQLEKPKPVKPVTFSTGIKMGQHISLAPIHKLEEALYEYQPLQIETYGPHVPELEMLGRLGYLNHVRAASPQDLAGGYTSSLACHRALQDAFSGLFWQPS
Method: as §1, §2

CDK7 protein = molecular target: T5, CDK7 protein (Homo sapiens, UniProt P50613); experiment: Western blot assay for CDK7 protein degradation in A2780 cells; assay type: cell-based; conditions: 24 hours; for DC50: read-out: Compound concentration that caused 50% CDK7 protein degradation in A2780 cells (DC50);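 as to all read-outs here: A is DC50 up to 100 nM B is 100 to 1000 nM C is above 1000 nM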
T5 construct: To verify endogenous CDK7 protein degradation; endogenous in cells; host or cells: A2780 (ECACC 93112519)
T5 sequence (P50613 whole entry): as the sequence (P50613 whole entry) above
Method: Human ovarian cancer cell line, A2780 (Cat #93112519) was obtained from ECACC. Cells were grown in RPMI-1640 media (Invitrogen, Cat #22400105) supplemented with 10% FBS (Hyclone, Cat #SH30084.03) and 1% penicillin/streptomycin (Hyclone, Cat #SV30010) and cultured at 37° C., 5% Co2 in a humidified chamber. All cell lines were routinely tested for mycoplasma.
To verify endogenous CDK7 protein degradation upon treatment of CDK7-specific degrader, the western blot assay was conducted a 24 hours' time period. 6×10^5 cells/well of A2780 cells were plated in 6-well plate. After 24 hours, the cells were treated with various concentrations of the compound corresponding range. DMSO solvent without compound served as a control and final DMSO concentration was not to exceed 0.1% of total volume. After 24 hours of incubation at 37° C., 5% Co2 incubator, cells were collected and lysed with 60 ul of lysis buffer. Collected lysates were incubated for 30 min on ice and collect supernatant through centrifugation at 12,000 rpm for 10 min at 4° C. The protein in lysates were quantified with BCA protein quantification kit (Pierce, Cat #23227) following manufacture's protocol. Cell lysates were diluted into 1 ug/ul of concentration with lysis buffer. 20 ug of protein was loaded to each well of 4˜12% Bis-Tris gel (Invitrogen, Cat #NP0336BOX) with MOPS running buffer (Invitrogen, Cat #NP0001). The proteins were transferred from gel to membrane and incubated with primary antibody as followed at 4° C. overnight; CDK7 (CST, Cat #2090S) and β-actin (Santa Cruz, Cat #sc-47778) 1:20,000. The signals were developed and acquired with ImageQuant™ LAS 4000.

T1 sequence (P06493 whole entry): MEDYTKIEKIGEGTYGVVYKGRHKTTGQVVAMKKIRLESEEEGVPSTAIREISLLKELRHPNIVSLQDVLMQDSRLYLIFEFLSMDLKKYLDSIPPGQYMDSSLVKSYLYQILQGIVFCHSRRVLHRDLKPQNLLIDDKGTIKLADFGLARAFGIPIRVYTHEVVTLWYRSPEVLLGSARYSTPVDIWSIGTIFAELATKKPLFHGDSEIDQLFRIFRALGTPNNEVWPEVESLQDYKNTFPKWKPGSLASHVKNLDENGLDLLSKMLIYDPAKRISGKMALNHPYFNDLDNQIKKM
T1 sequence (P14635 whole entry partner): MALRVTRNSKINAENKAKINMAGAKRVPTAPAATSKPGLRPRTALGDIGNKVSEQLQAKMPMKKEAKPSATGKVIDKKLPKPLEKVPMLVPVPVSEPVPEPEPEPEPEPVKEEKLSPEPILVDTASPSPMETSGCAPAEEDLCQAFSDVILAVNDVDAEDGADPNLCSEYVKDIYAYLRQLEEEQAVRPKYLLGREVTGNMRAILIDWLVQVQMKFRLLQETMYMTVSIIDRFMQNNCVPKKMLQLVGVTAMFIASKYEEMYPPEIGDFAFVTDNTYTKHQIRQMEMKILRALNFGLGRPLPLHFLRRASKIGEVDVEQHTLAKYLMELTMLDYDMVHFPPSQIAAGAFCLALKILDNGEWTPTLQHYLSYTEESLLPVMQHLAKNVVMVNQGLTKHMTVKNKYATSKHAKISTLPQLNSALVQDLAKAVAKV

SMILES | CDK1/CDK7: Selectivity of CDK7 inhibition over CDK1 inhibition (CDK1) | pIC50 (CDK1) | CDK2/CDK7: Selectivity of CDK7 inhibition over CDK2 inhibition (CDK2) | pIC50 (CDK2) | CDK5/CDK7: Selectivity of CDK7 inhibition over CDK5 inhibition (CDK5) | pIC50 (CDK5) | pIC50 (CDK7/CycH/MNAT1) | Compound concentration that caused 50% CDK7 protein degradation in A2780 cells (DC50, nM) (CDK7 protein) | DC50 (CDK7 protein)
CC(C)c1cnn2c(NCc3ccccc3-c3nccc4cc(NCCOCCOCCNC(=O)CNc5cccc6c5CN(C5CCC(=O)NC5=O)C6=O)ccc34)nc(O[C@@H]3CCCNC3)nc12 (some centres unmarked) [Compound 14] | A (A indicates [fold] > 500) | < 6.00 | A (A indicates [fold] > 500) | < 6.00 | A (A indicates [fold] > 500) | < 6.00 | ≥ 7.00 | B or A | 100 to 1000 nM
CC(C)c1cnn2c(NCc3ccccc3-c3nccc4cc(NC(=O)COCCOCCOCCNC(=O)CNc5cccc6c5C(=O)N(C5CCC(=O)NC5=O)C6=O)ccc34)nc(O[C@@H]3CCCNC3)nc12 (some centres unmarked) [Compound 9] | A (A indicates [fold] > 500) | < 6.00 | A (A indicates [fold] > 500) | < 6.00 | A (A indicates [fold] > 500) | < 6.00 | ≥ 7.00 | B or A | –
CNCC(=O)N[C@H](C(=O)N1C[C@@H](Oc2cccc(OCCOCCOCCNc3ccc4c(-c5ccccc5CNc5nc(O[C@@H]6CCCNC6)nc6c(C(C)C)cnn56)nccc4c3)c2)C[C@H]1C(=O)N[C@@H]1CCCc2ccccc21)C1CCCCC1 [Compound 12] | A (A indicates [fold] > 500) | < 6.00 | A (A indicates [fold] > 500) | < 6.00 | A (A indicates [fold] > 500) | < 6.00 | ≥ 7.00 | – | > 1000 nM
CC(C)c1cnn2c(NCc3ccccc3-c3nccc4cc(NCCOCCOCCNC(=O)CNc5cccc6c5C(=O)N(C5CCC(=O)NC5=O)C6=O)ccc34)nc(O[C@@H]3CCCNC3)nc12 (some centres unmarked) [Compound 7] | A (A indicates [fold] > 500) | < 6.00 | A (A indicates [fold] > 500) | < 6.00 | A (A indicates [fold] > 500) | < 6.00 | ≥ 7.00 | B or A | 100 to 1000 nM
Cc1ncsc1-c1ccc(CNC(=O)[C@@H]2C[C@@H](O)CN2C(=O)[C@@H](NC(=O)C2(F)CC2)C(C)(C)C)c(OCCOCCOCCNc2ccc3c(-c4ccccc4CNc4nc(O[C@@H]5CCCNC5)nc5c(C(C)C)cnn45)nccc3c2)c1 [Compound 11] | A (A indicates [fold] > 500) | < 6.00 | A (A indicates [fold] > 500) | < 6.00 | A (A indicates [fold] > 500) | < 6.00 | ≥ 7.00 | – | ≤ 100 nM

Second part, the compound after the results:

CDK1/CDK7: Selectivity of CDK7 inhibition over CDK1 inhibition (CDK1) | pIC50 (CDK1) | CDK2/CDK7: Selectivity of CDK7 inhibition over CDK2 inhibition (CDK2) | pIC50 (CDK2) | CDK5/CDK7: Selectivity of CDK7 inhibition over CDK5 inhibition (CDK5) | pIC50 (CDK5) | pIC50 (CDK7/CycH/MNAT1) | Compound concentration that caused 50% CDK7 protein degradation in A2780 cells (DC50, nM) (CDK7 protein) | DC50 (CDK7 protein) | SMILES
A (A indicates [fold] > 500) | < 6.00 | A (A indicates [fold] > 500) | < 6.00 | A (A indicates [fold] > 500) | < 6.00 | ≥ 7.00 | – | ≤ 100 nM | CC(C)c1cnn2c(NCc3ccccc3-c3nccc4cc(N5CCC(CN6CCN(c7ccc8c(c7)C(=O)N(C7CCC(=O)NC7=O)C8=O)CC6)CC5)ccc34)nc(O[C@@H]3CCCNC3)nc12 (some centres unmarked) [Compound 34]
A (A indicates [fold] > 500) | < 6.00 | A (A indicates [fold] > 500) | < 6.00 | A (A indicates [fold] > 500) | < 6.00 | ≥ 7.00 | – | ≤ 100 nM | Cc1ncsc1-c1ccc([C@H](C)NC(=O)[C@@H]2C[C@@H](O)CN2C(=O)[C@@H](NC(=O)CCOCCOCCNc2ccc3c(-c4ccccc4CNc4nc(O[C@@H]5CCCNC5)nc5c(C(C)C)cnn45)nccc3c2)C(C)(C)C)cc1 [Compound 17]
A (A indicates [fold] > 500) | < 6.00 | A (A indicates [fold] > 500) | < 6.00 | A (A indicates [fold] > 500) | < 6.00 | ≥ 7.00 | – | ≤ 100 nM | Cc1ncsc1-c1ccc(CNC(=O)[C@@H]2C[C@@H](O)CN2C(=O)[C@@H](NC(=O)C2(F)CC2)C(C)(C)C)c(OCCOCCOCCOCCOCCNc2ccc3c(-c4ccccc4CNc4nc(O[C@@H]5CCCNC5)nc5c(C(C)C)cnn45)nccc3c2)c1 [Compound 21]
A (A indicates [fold] > 500) | < 6.00 | A (A indicates [fold] > 500) | < 6.00 | A (A indicates [fold] > 500) | < 6.00 | ≥ 7.00 | – | > 1000 nM | Cc1cc([C@@H](C(=O)N2C[C@H](O)C[C@H]2C(=O)NCc2ccc(-c3scnc3C)cc2OCCOCCOCCNc2ccc3c(-c4ccccc4CNc4nc(O[C@@H]5CCCNC5)nc5c(C(C)C)cnn45)nccc3c2)C(C)C)on1 [Compound 26]
A (A indicates [fold] > 500) | < 6.00 | A (A indicates [fold] > 500) | < 6.00 | B (B indicates 50 < [fold] ≤ 500) | < 6.00 | ≥ 7.00 | – | ≤ 100 nM | CC(C)c1cnn2c(NCc3ccccc3-c3nccc4cc(NCC5CCN(CC6CCN(c7ccc8c(c7)C(=O)N(C7CCC(=O)NC7=O)C8=O)CC6)CC5)ccc34)nc(N[C@@H]3CCCNC3)nc12 (some centres unmarked) [Compound 32]
B (B indicates 50 < [fold] ≤ 500) | < 6.00 | B (B indicates 50 < [fold] ≤ 500) | < 6.00 | B (B indicates 50 < [fold] ≤ 500) | < 6.00 | 6.00 to 7.00 | – | ≤ 100 nM | Cc1cc([C@H](C(=O)N2C[C@H](O)C[C@H]2C(=O)NCc2ccc(-c3scnc3C)cc2OCCOCCOCCNc2ccc3c(-c4ccccc4CNc4nc(O[C@@H]5CCCNC5)nc5c(C(C)C)cnn45)nccc3c2)C(C)C)on1 [Compound 27]
A (A indicates [fold] > 500) | < 6.00 | A (A indicates [fold] > 500) | < 6.00 | A (A indicates [fold] > 500) | < 6.00 | ≥ 7.00 | – | ≤ 100 nM | Cc1ncsc1-c1ccc([C@H](C)NC(=O)[C@@H]2C[C@@H](O)CN2C(=O)[C@@H](NC(=O)CCOCCOCCOCCNc2ccc3c(-c4ccccc4CNc4nc(O[C@@H]5CCCNC5)nc5c(C(C)C)cnn45)nccc3c2)C(C)(C)C)cc1 [Compound 28]
